From patent US20250361233A1, “Compounds For Activating Serotonin Receptor” (PSYLO PTY LTD, priority 2023, published 2025) come the findings set out here.

T1 sequence (P28223 whole entry): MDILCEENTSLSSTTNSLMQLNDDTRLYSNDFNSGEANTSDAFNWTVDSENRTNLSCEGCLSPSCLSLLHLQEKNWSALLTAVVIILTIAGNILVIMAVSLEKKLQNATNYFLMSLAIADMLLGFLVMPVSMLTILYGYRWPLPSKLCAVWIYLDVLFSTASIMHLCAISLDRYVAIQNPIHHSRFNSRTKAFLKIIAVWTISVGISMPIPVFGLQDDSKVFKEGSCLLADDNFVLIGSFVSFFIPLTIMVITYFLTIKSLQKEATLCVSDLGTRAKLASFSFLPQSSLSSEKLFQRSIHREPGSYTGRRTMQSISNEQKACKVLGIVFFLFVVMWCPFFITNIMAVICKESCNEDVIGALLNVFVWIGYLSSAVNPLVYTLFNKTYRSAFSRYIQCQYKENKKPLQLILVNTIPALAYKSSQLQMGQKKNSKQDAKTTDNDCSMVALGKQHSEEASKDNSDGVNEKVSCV

One experiment has as its target T1, 5-HT2A receptor (Homo sapiens, UniProt P28223).
T1 construct: host or cells: HEK293
In words: FLIPR Ca2+ flux functional assay, agonist activity at 5-HT2A. Format: cell-based. Conditions: stably transfected HEK293 cells. As to the method: (§1) Functional assays 5-HT2A, 5-HT2B and 5-HT2C Receptors
(§2) Activity at 5-HT2A, 5-HT2B and 5-HT2C receptors was determined using a FLIPR Ca2+ flux assay at WuXi AppTec Co. Ltd. (Hong Kong) Discovery Biology Unit according to their standard protocols. Briefly, stably transfected cells expressing the receptor of interest (HEK293 for 5-HT2A and 5-HT2C; CHO-K1 for 5-HT2B) were grown and plated in a 384 well plate and incubated at 37° C. and 5% CO2 overnight. A 250 mM stock solution of probenecid in FLIPR calcium assay buffer (10 mL) was freshly prepared and combined with a fluorescent dye (Fluo-4 Direct) to give a final assay concentration of 2.5 mM. Reference compounds were 4-fold serially diluted and the screening compounds were 3-fold serially diluted in 100% DMSO for 10 points using Agilent Bravo, and 750 nL was added to a 384 well compound plate using Echo along with 30 μL assay buffer. The fluorescent dye was then added to the assay plate along with assay buffer to a final volume of 40 μL. The cell plate was incubated for 50 min at 37° C. and 5% CO2 and placed into the FLIPR Tetra along with the compound plate. 10 μL of references and compounds were then transferred from the compound plate into the cell plate and the fluorescent signal was read.
The EC50 is the concentration at which the effect is half-maximal. For orientation: Emax means the greatest response seen or fitted, relative to the assay's reference. With `COc1cnc2[nH]cc(CCN3CCC3)c2c1` [Compound S45, 3-(2-(azetidin-1-yl)ethyl)-5-methoxy-1H-pyrrolo[2,3-b]pyridine], the 50% effective concentration (EC50) came out at 24 nM and the Emax was 86%.
The like results for `COc1cccc(CNCCc2c[nH]c3ncc(Br)cc23)c1` [Compound S63, 2-(5-bromo-1H-pyrrolo[2,3-b]pyridin-3-yl)-N-(3-methoxybenzyl)ethan-1-amine] were, in that order, 104 nM and 63%.
Compound `Fc1cnc2[nH]cc(CCN3CCC4CC43)c2c1` (centres unmarked) [Compound S25, 3-(2-(2-azabicyclo[3.1.0]hexan-2-yl)ethyl)-5-fluoro-1H-pyrrolo[2,3-b]pyridine] yielded an EC50 of 8.98 nM and a maximal effect (Emax) of 87%.
The like results for `Fc1cnc2[nH]cc(CCN3CCCCC3)c2c1` [Compound S7, 5-fluoro-3-(2-(piperidin-1-yl)ethyl)-1H-pyrrolo[2,3-b]pyridine] were, in that order, 529 nM and 70%.
`CC1CCN1CCc1c[nH]c2ncc(Br)cc12` (centres unmarked) [Compound S59, 5-bromo-3-(2-(2-methylazetidin-1-yl)ethyl)-1H-pyrrolo[2,3-b]pyridine] gave an EC50 of 410 nM and a maximal effect (Emax) of 69%.
The matching figures for `CC1CCN1CCc1c[nH]c2ncc(C#N)cc12` (centres unmarked) [Compound S71, 3-(2-(2-methylazetidin-1-yl)ethyl)-1H-pyrrolo[2,3-b]pyridine-5-carbonitrile]: 1140 nM and 81%.
The compound `CCN(C)CCc1c[nH]c2ncc(OC(F)(F)F)cc12` [Compound S64, N-ethyl-N-methyl-2-(5-(trifluoromethoxy)-1H-pyrrolo[2,3-b]pyridin-3-yl)ethan-1-amine] gave a concentration giving a half-maximal response (EC50) of 1670 nM and a maximal effect (Emax) of 47%.
The matching figures for `C[C@@H]1CCCN1CCc1c[nH]c2ncc(F)cc12` [Compound S50, (R)-5-fluoro-3-(2-(2-methylpyrrolidin-1-yl)ethyl)-1H-pyrrolo[2,3-b]pyridine]: 66.5 nM and 90%.
The matching figures for `Fc1cnc2[nH]cc(CCN3CCCC3)c2c1` [Compound S6, 5-fluoro-3-(2-(pyrrolidin-1-yl)ethyl)-1H-pyrrolo[2,3-b]pyridine]: 37.9 nM and 81%.
The like results for `COc1cccc(CNCCc2c[nH]c3ncc(C#N)cc23)c1` [Compound S75, 3-(2-((3-methoxybenzyl)amino)ethyl)-1H-pyrrolo[2,3-b]pyridine-5-carbonitrile] were, in that order, 44.4 nM and 79%.

Another experiment deals with T2, 5-HT2C receptor (Homo sapiens, UniProt P28335).
T2 construct: host or cells: HEK293
T2 sequence (P28335 33-458): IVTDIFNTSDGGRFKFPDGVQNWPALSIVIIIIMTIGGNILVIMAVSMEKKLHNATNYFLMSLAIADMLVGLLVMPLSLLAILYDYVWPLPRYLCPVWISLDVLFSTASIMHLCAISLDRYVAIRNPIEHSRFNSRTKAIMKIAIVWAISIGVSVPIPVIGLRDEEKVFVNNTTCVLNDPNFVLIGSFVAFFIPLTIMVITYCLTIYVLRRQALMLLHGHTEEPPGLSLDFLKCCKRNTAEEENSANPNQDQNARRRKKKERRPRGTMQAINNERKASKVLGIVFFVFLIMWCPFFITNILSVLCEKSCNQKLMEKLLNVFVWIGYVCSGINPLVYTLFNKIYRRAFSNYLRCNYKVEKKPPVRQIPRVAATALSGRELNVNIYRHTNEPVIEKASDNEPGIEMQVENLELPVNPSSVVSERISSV
The experiment can be described thus: FLIPR Ca2+ flux functional assay, agonist activity at 5-HT2C. In kind it is cell-based. Conditions: stably transfected HEK293 cells. As to the method: as §1, §2
In turn, `COc1cnc2[nH]cc(CCN3CCC3)c2c1` [Compound S45, 3-(2-(azetidin-1-yl)ethyl)-5-methoxy-1H-pyrrolo[2,3-b]pyridine] showed an EC50 above 10000 nM and an Emax of 11%.
Compound `COc1cccc(CNCCc2c[nH]c3ncc(Br)cc23)c1` [Compound S63, 2-(5-bromo-1H-pyrrolo[2,3-b]pyridin-3-yl)-N-(3-methoxybenzyl)ethan-1-amine] had a concentration giving a half-maximal response (EC50) of 2970 nM and a maximal effect (Emax) of 48%.
`Fc1cnc2[nH]cc(CCN3CCC4CC43)c2c1` (centres unmarked) [Compound S25, 3-(2-(2-azabicyclo[3.1.0]hexan-2-yl)ethyl)-5-fluoro-1H-pyrrolo[2,3-b]pyridine]: the EC50 was 76 nM and the Emax was found to be 84%.
Take `Fc1cnc2[nH]cc(CCN3CCCCC3)c2c1` [Compound S7, 5-fluoro-3-(2-(piperidin-1-yl)ethyl)-1H-pyrrolo[2,3-b]pyridine]: the 50% effective concentration (EC50) is above 10000 nM and the maximal response (Emax) turned out to be 2%.
The matching figures for `CC1CCN1CCc1c[nH]c2ncc(Br)cc12` (centres unmarked) [Compound S59, 5-bromo-3-(2-(2-methylazetidin-1-yl)ethyl)-1H-pyrrolo[2,3-b]pyridine]: above 10000 nM and 19%.
The matching figures for `CC1CCN1CCc1c[nH]c2ncc(C#N)cc12` (centres unmarked) [Compound S71, 3-(2-(2-methylazetidin-1-yl)ethyl)-1H-pyrrolo[2,3-b]pyridine-5-carbonitrile]: above 10000 nM and 9%.
`CCN(C)CCc1c[nH]c2ncc(OC(F)(F)F)cc12` [Compound S64, N-ethyl-N-methyl-2-(5-(trifluoromethoxy)-1H-pyrrolo[2,3-b]pyridin-3-yl)ethan-1-amine] displayed a concentration for a half-maximal effect (EC50) above 10000 nM and an Emax of 0%.
`C[C@@H]1CCCN1CCc1c[nH]c2ncc(F)cc12` [Compound S50, (R)-5-fluoro-3-(2-(2-methylpyrrolidin-1-yl)ethyl)-1H-pyrrolo[2,3-b]pyridine] gave an EC50 of 3980 nM and a maximum response (Emax) of 44%.
The matching figures for `Fc1cnc2[nH]cc(CCN3CCCC3)c2c1` [Compound S6, 5-fluoro-3-(2-(pyrrolidin-1-yl)ethyl)-1H-pyrrolo[2,3-b]pyridine]: 1860 nM and 81%.
`COc1cccc(CNCCc2c[nH]c3ncc(C#N)cc23)c1` [Compound S75, 3-(2-((3-methoxybenzyl)amino)ethyl)-1H-pyrrolo[2,3-b]pyridine-5-carbonitrile] returned an EC50 of 3620 nM and an Emax of 46%.

The next experiment deals with T3, 5-HT2B receptor (Homo sapiens, UniProt P41595).
T3 construct: host or cells: CHO-K1
T3 sequence (P41595 whole entry): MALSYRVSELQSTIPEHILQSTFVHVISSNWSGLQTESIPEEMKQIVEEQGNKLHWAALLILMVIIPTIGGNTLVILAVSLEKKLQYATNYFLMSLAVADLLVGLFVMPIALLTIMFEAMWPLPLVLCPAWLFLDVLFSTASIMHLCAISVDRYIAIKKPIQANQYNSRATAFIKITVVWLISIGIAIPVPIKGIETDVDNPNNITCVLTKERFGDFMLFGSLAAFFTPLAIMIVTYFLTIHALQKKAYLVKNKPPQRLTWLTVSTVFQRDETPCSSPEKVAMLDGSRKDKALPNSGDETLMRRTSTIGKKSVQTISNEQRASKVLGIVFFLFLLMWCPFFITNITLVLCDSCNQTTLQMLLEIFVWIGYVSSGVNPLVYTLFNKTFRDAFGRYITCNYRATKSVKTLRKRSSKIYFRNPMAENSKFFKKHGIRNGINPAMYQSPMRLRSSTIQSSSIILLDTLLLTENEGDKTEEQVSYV
In words: 5-HT2B activation in a similar assay at a single 10 μM concentration. Format: cell-based.
Details: not given
The protocol:
Activation data are provided in a similar assay tested at a single 10 μM concentration.
On to `COc1cnc2[nH]cc(CCN3CCC3)c2c1` [Compound S45, 3-(2-(azetidin-1-yl)ethyl)-5-methoxy-1H-pyrrolo[2,3-b]pyridine], for which the “5-HT2B % Activation @ 10 μM” value came to 0%.
On the same count and under the same terms, the value for `COc1cccc(CNCCc2c[nH]c3ncc(Br)cc23)c1` [Compound S63, 2-(5-bromo-1H-pyrrolo[2,3-b]pyridin-3-yl)-N-(3-methoxybenzyl)ethan-1-amine] was 0%.
With `Fc1cnc2[nH]cc(CCN3CCC4CC43)c2c1` (centres unmarked) [Compound S25, 3-(2-(2-azabicyclo[3.1.0]hexan-2-yl)ethyl)-5-fluoro-1H-pyrrolo[2,3-b]pyridine], the “5-HT2B % Activation @ 10 μM” value is 41%.
On to `Fc1cnc2[nH]cc(CCN3CCCCC3)c2c1` [Compound S7, 5-fluoro-3-(2-(piperidin-1-yl)ethyl)-1H-pyrrolo[2,3-b]pyridine], for which the “5-HT2B % Activation @ 10 μM” value is 0%.
Same read-out and setting: the value for `CC1CCN1CCc1c[nH]c2ncc(Br)cc12` (centres unmarked) [Compound S59, 5-bromo-3-(2-(2-methylazetidin-1-yl)ethyl)-1H-pyrrolo[2,3-b]pyridine] was 0%.
Same read-out and setting: the value for `CC1CCN1CCc1c[nH]c2ncc(C#N)cc12` (centres unmarked) [Compound S71, 3-(2-(2-methylazetidin-1-yl)ethyl)-1H-pyrrolo[2,3-b]pyridine-5-carbonitrile] was 0%; that for `CCN(C)CCc1c[nH]c2ncc(OC(F)(F)F)cc12` [Compound S64, N-ethyl-N-methyl-2-(5-(trifluoromethoxy)-1H-pyrrolo[2,3-b]pyridin-3-yl)ethan-1-amine] was 1%; that for `C[C@@H]1CCCN1CCc1c[nH]c2ncc(F)cc12` [Compound S50, (R)-5-fluoro-3-(2-(2-methylpyrrolidin-1-yl)ethyl)-1H-pyrrolo[2,3-b]pyridine] was 2%.
With `Fc1cnc2[nH]cc(CCN3CCCC3)c2c1` [Compound S6, 5-fluoro-3-(2-(pyrrolidin-1-yl)ethyl)-1H-pyrrolo[2,3-b]pyridine], the “5-HT2B % Activation @ 10 μM” value is 16%.
Same read-out and setting: the value for `COc1cccc(CNCCc2c[nH]c3ncc(C#N)cc23)c1` [Compound S75, 3-(2-((3-methoxybenzyl)amino)ethyl)-1H-pyrrolo[2,3-b]pyridine-5-carbonitrile] was 1%.
